{
  "source": "patent US20080081781A1",
  "about": "“Methods and compositions for the treatment of metabolic syndrome” (priority 2004, published 2008)",
  "key": {"[1]": {"test_system": "HMG-CoA reductase mRNA", "experiment": "HMG-CoA reductase mRNA stability in HepG2 cells", "type": "cell-based, human", "details": "HepG2, berberine 15 hours then actinomycin D", "method": "(§1) HepG2 cells were cultured and then left alone or treated with berberine for 15 hours. After 15 hours, actinomycin D (5 μg/ml) was added to cells at 0, 20, 40, 60, 90, 120, or 150 minutes. Total mRNA was isolated and analyzed by Northern blot for the amount of LDLR mRNA. […] In contrast, the mRNA stability of HMG-CoA reductase was not altered by berberine."}, "[2]": {"test_system": "LDLR mRNA", "experiment": "LDLR mRNA stability after actinomycin D in HepG2 cells (Northern blot)", "type": "cell-based, human", "details": "HepG2, berberine 15 hours then actinomycin D 5 μg/ml", "method": "as §1"}, "[3]": {"experiment": "in vivo", "details": "rabbit, 50 mg/kg", "method": "50 mg/kg of berberine was administered through stomach infusion to six rabbits. Serum samples were taken at various points after administration and RP-HPLC was used to measure the drug concentration."}, "[4]": {"test_system": "hyperlipidemia patients", "details": "for Cholesterol / HDL Protein / LDL Protein / Triglycerides: hyperlipidemia patients, n = 32", "quoted_text": "After three months, fasting serum concentrations of cholesterol, triglycerides, HDL and LDL were measured using standard blood lipid tests."}, "[5]": {"experiment": "in vitro", "type": "in vitro ADME", "details": "rabbit", "method": "The rabbit blood protein binding rate was measured by in vitro dialysis at a rate of 38±3% (XD±S, n=6)."}, "[6]": {"test_system": "ERK", "experiment": "ERK activation in HepG2 or Bel-7402 cells (western blotting, phosphorylated ERK)", "type": "cell-based, human", "details": "both hepatoma cell lines HepG2 and Bel-7402; 0.25-24 hours", "method": "HepG2 or Bel-7402 cells were treated with berberine for 0.25, 0.5, 0.75, 1, 2, 8, and 24 hours respectively and tested for levels of activated ERK by western blotting using antibodies that only recognize the activated (phosphorylated) ERK. […] The activation of berberine is also dose dependent (FIG. 14C)."}, "[7]": {"test_system": "SREBP2", "experiment": "Precursor and mature forms of SREBP2 in HepG2 cells (Western blot)", "type": "cell-based, human", "details": "8 hours", "excerpt": "Total cell lysates from untreated cells or cells treated with either berberine or GW707 were then harvested and analyzed by Western blot."}, "[8]": {"test_system": "InsR mRNA", "experiment": "InsR mRNA expression in HepG2 cells (real time RT-PCR, slot blot)", "type": "cell-based, human", "details": "HepG2, 2.5 μg/ml for 8 hours", "method": "Cells from the human hepatoma cell line HepG2 were incubated with 0, 1, 2.5, 5, 10 or 15 μg/ml of berberine respectively for eight hours. Total cellular RNA was isolated using the Ultraspec RNA lysis solution (Biotecxs Laboratory, Houston, Tex.) following the vender's protocols. […] of the RNA sample was transferred to nitrocellulose membrane via a slot-blot apparatus (Schleicher & Schuell, Keene, N.H.). The blots were fixed by baking at 80° C. for 2 h, followed by hybridization to a 0.89-kb long, 32P-labelled human InsR cDNA probe. The same membranes were then stripped and re-hybridized to a human ACTB probe as internal control. Quantitative real time RT-PCR assays were also done. For the RT-PCR assay, total cellular RNA was reverse-transcribed into cDNA using the Reverse Transcription System (Promega, Madison, Wis.). Quantitative real-time PCR were performed with these cDNA using the Applied Biosystems 7500 Real-Time PCR System and TaqMan® Universal PCR Master Mix (Applied Biosystems, Foster City, Calif.). […] 2.5 μl of cDNA sample, 12.5 μl of Universal PCR Master Mix, and 1.25 μl of TaqMan® Gene Expression Assay reagent were mixed in a 25 μl reaction system, and the comparative CT method was used in relative gene quantification using the TaqMan® SDS analysis software. […]"}, "[9]": {"details": "After berberine treatment (3 months)"}, "[10]": {"details": "Before berberine treatment (baseline)"}},
  "note": "Where two headings read alike, the source gives them in different places.",
  "data": [
    {"compound": "COc1ccc2cc3[n+](cc2c1OC)CCc1cc2c(cc1-3)OCO2", "note": "[berberine]", "values": [
      {"measurement": "mRNA stability of HMG-CoA reductase", "setting": "[1]", "value": "not altered"},
      {"measurement": "prolongation of turnover rate of LDLR transcript", "setting": "[2]", "value": "approximately threefold"},
      {"measurement": "peak time Tpeak", "setting": "[3]", "value": "0.63 ± 0.25", "unit": "h"},
      {"measurement": "AUC", "setting": "[3]; po", "value": "492 ± 296", "unit": "ng·h/mL"},
      {"measurement": "Cmax", "setting": "[3]; po", "value": "92.7 ± 50.9", "unit": "ng/mL"},
      {"measurement": "half-life", "setting": "[3]; po", "value": "3.11 ± 0.58", "unit": "h"},
      {"measurement": "kidney functions (creatine, blood urea nitrogen, total bilirubin)", "setting": "[4]; human, in vivo", "value": "did not change kidney functions"},
      {"measurement": "reduction of alanine aminotransaminase", "setting": "[4]; human, in vivo", "value": "approximately 48%"},
      {"measurement": "reduction of aspartate aminotransaminase", "setting": "[4]; human, in vivo", "value": "~36", "unit": "%"},
      {"measurement": "reduction of gamma glutamyl transpeptidase", "setting": "[4]; human, in vivo", "value": "~41", "unit": "%"},
      {"measurement": "side effects", "setting": "[4]; human, in vivo", "value": "no side effects were observed with the exception of one patient having mild constipation during treatment"},
      {"measurement": "Cholesterol", "setting": "[4]; [9]", "value": "4.2 ± 0.9", "unit": "mmol/L"},
      {"measurement": "HDL Protein", "setting": "[4]; [9]", "value": "1.1 ± 0.3"},
      {"measurement": "LDL Protein", "setting": "[4]; [9]", "value": "2.4 ± 0.6", "unit": "mmol/L"},
      {"measurement": "Triglycerides", "setting": "[4]; [9]", "value": "1.5 ± 0.9", "unit": "mmol/L"},
      {"measurement": "Cholesterol", "setting": "[4]; [10]", "value": "5.9 ± 0.7", "unit": "mmol/L"},
      {"measurement": "HDL Protein", "setting": "[4]; [10]", "value": "1.1 ± 0.3"},
      {"measurement": "LDL Protein", "setting": "[4]; [10]", "value": "3.2 ± 0.7", "unit": "mmol/L"},
      {"measurement": "Triglycerides", "setting": "[4]; [10]", "value": "2.3 ± 1.8", "unit": "mmol/L"},
      {"measurement": "fraction unbound", "setting": "[5]", "value": 0.62},
      {"measurement": "ERK activation (phosphorylated ERK)", "setting": "[6]", "value": "rapidly activated ERK"},
      {"measurement": "amount of the mature form of SREB-2", "setting": "[7]", "value": "no effect"},
      {"measurement": "increase of InsR mRNA", "setting": "[8]", "value": 40, "unit": "%"}
    ]}
  ]
}
